Experimental data as given in article PMC9250534, “Synthesis and direct assay of large macrocycle diversities by combinatorial late-stage modification at picomole scale” (Nature Communications, 2022).

Target: MDM2 (Homo sapiens, UniProt Q00987)
Experiment: MDM2 binding screen of Libraries 3 and 4: displacement of fluorescent probe F-M8 at 750 nM macrocycle
Conditions: Panel b, Library 3: 63 scaffolds combinatorially acylated with 15 carboxylic acids at 30 picomole scale; displacement of fluorescent peptide probe; macrocycle 750 nM
Procedure, shortened: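 Competition with nutlin-3a was run using the fluorescein conjugate. Library members came from scaffolds reacted 6 h at room temperature with carboxylic acids (20 equiv.), HBTU and DABCO in DMSO. Quenching was overnight in Tris-Cl pH 7.4 buffer with 0.01% Tween20.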

Sequence of MDM2 (Q00987 whole entry): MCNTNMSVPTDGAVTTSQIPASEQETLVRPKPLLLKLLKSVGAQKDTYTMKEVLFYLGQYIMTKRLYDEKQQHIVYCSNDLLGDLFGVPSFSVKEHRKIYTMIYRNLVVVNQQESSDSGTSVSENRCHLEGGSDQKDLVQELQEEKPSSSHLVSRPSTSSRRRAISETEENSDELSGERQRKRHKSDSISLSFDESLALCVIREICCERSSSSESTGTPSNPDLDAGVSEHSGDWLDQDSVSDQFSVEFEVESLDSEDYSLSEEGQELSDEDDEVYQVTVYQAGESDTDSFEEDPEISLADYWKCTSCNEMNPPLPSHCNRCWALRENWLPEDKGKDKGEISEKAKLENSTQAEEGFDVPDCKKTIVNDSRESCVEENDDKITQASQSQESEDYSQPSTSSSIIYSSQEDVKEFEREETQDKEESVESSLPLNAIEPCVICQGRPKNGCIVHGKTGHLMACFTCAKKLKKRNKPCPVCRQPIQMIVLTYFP

In order of rising “fraction of fluorescent probe displaced” value:
1. O=C(NC[C@H]1NC(=O)[C@H]2CCCN(C2)C(=O)CCSSCCNC(=O)[C@@H](Cc2c[nH]c3ccccc23)NC1=O)c1ccc(Cl)s1 [X-Nip-D-Dap-D-Trp + Acid 14]  -0.00533
2. Cn1cc(C[C@@H]2NC(=O)[C@H](CNC(=O)CCS(=O)(=O)c3ccccc3)NC(=O)[C@H]3CCCN(C3)C(=O)CCSSCCNC2=O)c2ccccc21 [X-Nip-Dap-Me-Trp + Acid 114]  -0.00533
3. O=C1CCSSCCNC(=O)[C@H](Cc2c[nH]c3ccccc23)NC(=O)[C@@H](CNC(=O)c2ccc(Cl)s2)NC(=O)C2(CC2)CN1 [X-Amcp-D-Dap-Trp + Acid 14]  -0.00533
4. O=C1CCSSCCNC(=O)[C@H](Cc2c[nH]c3ccccc23)NC(=O)CN(CCNC(=O)c2ccc(Cl)cc2)C(=O)C2(CC2)CN1 [X-Amcp-N-Aeg-Trp + Acid 25]  0.00133
5. O=C1CN(CCNC(=O)c2ccc3ccccc3c2)C(=O)[C@H]2CCCN(C2)C(=O)CCSSCCNC(=O)[C@H](Cc2ccc3ccccc3c2)N1 [X-Nip-N-Aeg-2-Nal + Acid 107]  0.011
6. O=C1CCSSCCNC(=O)[C@H](Cc2cccc3ccccc23)NC(=O)[C@@H](CNC(=O)C2COc3ccccc3O2)NC(=O)C2(CC2)CN1 (stereo partly drawn) [X-Amcp-D-Dap-1-NaI + Acid 115]  0.015
7. Cn1cc(C[C@@H]2NC(=O)[C@@H](CNC(=O)/C=C/c3ccc(Cl)cc3)NC(=O)[C@H]3CCCN(C3)C(=O)CCSSCCNC2=O)c2ccccc21 [X-Nip-D-Dap-Me-Trp + Acid 108]  0.015
8. O=C(/C=C/c1ccc(Cl)cc1)NC[C@H]1NC(=O)C2(CC2)CNC(=O)CCSSCCNC(=O)[C@H](Cc2cccc3ccccc23)NC1=O [X-Amcp-D-Dap-1-NaI + Acid 108]  0.021
9. O=C(NC[C@H]1NC(=O)[C@H]2CCCN(C2)C(=O)CCSSCCNC(=O)[C@H](Cc2c[nH]c3cc(Cl)ccc23)NC1=O)c1ccc2ccccc2c1 [X-Nip-D-Dap-Cl-Trp + Acid 107]  0.024
10. O=C(/C=C/c1ccc2ccccc2c1)NCCN1CC(=O)N[C@@H](Cc2c[nH]c3ccccc23)C(=O)NCCSSCCC(=O)NCC2(CC2)C1=O [X-Amcp-N-Aeg-Trp + Acid 112]  0.041
11. O=C(C=Cc1ccc(Cl)cc1)NCC1NC(=O)C2CN(CCO2)C(=O)CCSSCCNC(=O)C(Cc2c[nH]c3cc(Cl)ccc23)NC1=O (stereo not drawn) [X-Cop-Dap-Cl-Trp + Acid 108]  0.075
12. O=C(NC[C@@H]1NC(=O)[C@@H]2CN(CCO2)C(=O)CCSSCCNC(=O)[C@H](Cc2c[nH]c3cc(Cl)ccc23)NC1=O)c1ccc(Cl)s1 [X-Cop-Dap-Cl-Trp + Acid 14]  0.128
13. O=C(NC[C@@H]1NC(=O)[C@H]2CCCN(C2)C(=O)CCSSCCNC(=O)[C@H](Cc2c[nH]c3ccccc23)NC1=O)c1ccc(Cl)cc1 [X-Nip-Dap-Trp + Acid 25]  0.194
14. O=C(C=Cc1ccncc1)NCC1NC(=O)C2CN(CCO2)C(=O)CCSSCCNC(=O)C(Cc2c[nH]c3cc(Cl)ccc23)NC1=O (stereo not drawn) [X-Cop-Dap-Cl-Trp + Acid 106]  0.284

Same assay, conditions: Panel c, Library 4: best nine scaffolds and 15 additional carboxylic acids; displacement of fluorescent probe

In order of falling “fraction of fluorescent probe displaced” value:
1. CC(C)c1ccc(/C=C/C(=O)NC[C@@H]2NC(=O)[C@@H]3CN(CCO3)C(=O)CCSSCCNC(=O)[C@H](Cc3c[nH]c4cc(Cl)ccc34)NC2=O)cc1 [X-Cop-Dap-Cl-Trp + Acid 127]  0.085
2. Cn1cc(C[C@@H]2NC(=O)[C@H](CNC(=O)/C=C/c3ccc(Cl)c(Cl)c3)NC(=O)[C@H]3CCCN(C3)C(=O)CCSSCCNC2=O)c2ccccc21 [X-Nip-Dap-Me-Trp + Acid 119]  0.085
3. Cn1cc(C[C@@H]2NC(=O)[C@H](CNC(=O)/C=C/c3ccc(F)cc3)NC(=O)[C@H]3CCCN(C3)C(=O)CCSSCCNC2=O)c2ccccc21 [X-Nip-Dap-Me-Trp + Acid 116]  0.052
4. O=C(O)c1cnc2ccccc2n1 [Acid 130]  0.0035
